In patent US20120245184A1 (Aderans Research Institute, Inc., priority 2006, published 2012):
Counter-ions that a name gives are not always drawn.

Assays:
[1] = test system: sonic hedgehog pathway; assay: Hedgehog reporter assay (gli-luciferase) in TM3 cells; assay type: cell-based, mouse; conditions: TM3 mouse Leydig cells, gli-luciferase reporter; read-out: TM3 Avg. EC50
Text: (§1) Mouse (TM3: mouse Leydig cells; S12: mouse embryonic mesenchymal cells) and human (Daoy: human medulloblastoma cell; HepM: human embryonic palatal mesenchymal cell) cell lines are used to screen small molecules for their ability to modulate the activity of the sonic hedgehog pathway (Table 1, Table 2, and Table 3). Stable hedgehog pathway reporter cell lines are established by specific antibiotic selection following transfection of a reporter plasmid containing a luciferase gene located directly downstream from the gli promoter. Consequently, any observable changes in cellular luciferase activity may be attributed to changes in sonic hedgehog pathway activity in mouse and human cells, respectively, since gli is the major by-product of this pathway. To calculate activity, we generate an eleven point dose curve for each compound using 1:3 dilutions in 96 well assay plates. Each plate tested also contains low and high control to establish maximal pathway activation so to establish/compare a percentage activation of each tested compound (AMAX) on respective plates.
(§2) Stable hedgehog pathway reporter cell lines are established following specific antibiotic selection following transfection of a reporter plasmid
(§3) In short, typically cells are plated in MicroTiter-plates at 10,000-20,000 cells per well, in growth media (containing 10%-20% FBS). After 48-72 hrs (HGL and DGL respectively) the media in the assay plates is switched to low-serum containing media (0.5% FBS). At that time compounds are added (at 1-5 μM) to the assay plates, in the presence or absence of hedgehog protein (octyl-modified version; 1-5 ng/ml). After another 24 hrs of incubation, the media from the assay plates is discarded and replaced with luciferase assay-mix. Subsequently, plates are incubated at RT for ˜15-30 mins and then read in a luminometer. [note: addition of the Hedgehog protein, although not critical, will sensitize the assay allowing the identification of weak actives].

[2] = test system: sonic hedgehog pathway; assay: Human hedgehog reporter assay Daoy-GliLuc (DGL); assay type: cell-based
Text: as §1, §2, §3

[3] = test system: sonic hedgehog pathway; assay: Human hedgehog reporter assay HEPM-GliLuc (HGL); assay type: cell-based; conditions: HepM human embryonic palatal mesenchymal cells, gli-luciferase reporter; read-out: HEPM Avg. EC50
Text: as §1, §2, §3

[4] = test system: sonic hedgehog pathway; assay: Hedgehog reporter assay (gli-luciferase) in S12 cells; assay type: cell-based; conditions: S12 mouse embryonic mesenchymal cells, read-out: Mouse S12 Avg. EC50
Text: as §1, with “respective plates. Also we calculate EC50 values, or a concentration where the pathway will be exactly 50% activated, for each tested compound to determine potency. In these cell lines, compounds that register >20% AMAX values are considered active.” for “respective plates.”
as §2, §3

[5] = Daoy human medulloblastoma cells, gli-luciferase reporter, read-out: Daoy Avg. EC50
[6] = Daoy human medulloblastoma cells, gli-luciferase reporter, read-out: Human Daoy (Gli-Luc) Avg. EC50

| Compound | EC50 [1] | EC50 [2, 5] | EC50 [3] | EC50 [2, 6] | EC50 [4] | EC50 ([2]; Homo sapiens, Daoy, read-out: Human Daoy (Gli-Luc) Avg. EC50 (nM)) |
| --- | --- | --- | --- | --- | --- | --- |
| CNC1CCC(N(Cc2cc(-c3cncnc3)ccc2OC)C(=O)c2sc3ccccc3c2Cl)CC1 (stereo not drawn) [Compound 324 (R20), 3-Chloro-benzo[b]thiophene-2-carboxylic acid (2-methoxy-5-pyrimidin-5-yl-benzyl)-(4-methylamino-cyclohexyl)-amide dihydrochloride] | 50 to 250 nM | < 50 nM | 50 to 250 nM | – | – | – |
| CCOc1ccc(-c2cncnc2)cc1CN(C(=O)c1sc2ccccc2c1Cl)C1CCC(NC)CC1 (stereo not drawn) [Compound 326, 3-Chloro-benzo[b]thiophene-2-carboxylic acid (2-ethoxy-5-pyrimidin-5-yl-benzyl)-(4-methylamino-cyclohexyl)-amide dihydrochloride] | 50 to 250 nM | < 50 nM | 50 to 250 nM | – | – | – |
| CNC1CCC(N(Cc2cc(-c3cnccn3)ccc2OC)C(=O)c2sc3ccccc3c2Cl)CC1 (stereo not drawn) [Compound 330 (R22), 3-Chloro-benzo[b]thiophene-2-carboxylic acid (2-methoxy-5-pyrazin-2-yl-benzyl)-(4-methylamino-cyclohexyl)-amide bis(trifluoroacetate)] | 50 to 250 nM | < 50 nM | 50 to 250 nM | – | – | – |
| CNC1CCC(N(Cc2cc(-c3ccc(CCl)cc3)ccc2OC)C(=O)c2sc3ccccc3c2Cl)CC1 (stereo not drawn) [Compound 340, 3-Chloro-benzo[b]thiophene-2-carboxylic acid (4′-chloromethyl-4-methoxy-biphenyl-3-ylmethyl)-(4-methylamino-cyclohexyl)-amide hydrochloride] | < 50 nM | < 50 nM | < 50 nM | – | – | – |
| CN[C@H]1CC[C@@H](N(Cc2cc(-c3ccnc(C)c3)ccc2OC)C(=O)C2=C(Cl)c3c(F)ccc(C)c3C2)CC1 [Compound 345, 3-Chloro-4,7-difluoro-benzo[b]thiophene-2-carboxylic acid[2-methoxy-5-(2-methyl-pyridin-4-yl)-benzyl]-(4-methylamino-cyclohexyl)-amide dihydrochloride] | < 50 nM | < 50 nM | < 50 nM | – | – | – |
| CNC1CCC(N(Cc2cc(-c3ccc(N(C)C=O)cc3)ccc2OC)C(=O)c2sc3cccc(F)c3c2Cl)CC1 (stereo not drawn) [Compound 347, 3-Chloro-4-fluoro-benzo[b]thiophene-2-carboxylic acid[4′-(formyl-methyl-amino)-4-methoxy-biphenyl-3-ylmethyl]-(4-methylamino-cyclohexyl)-amide trifluoroacetate] | < 50 nM | < 50 nM | < 50 nM | – | – | – |
| CNC1CCC(N(Cc2cc(-c3ccc(C(=O)C(F)(F)F)cc3)ccc2OC)C(=O)c2sc3c(F)ccc(F)c3c2Cl)CC1 (stereo not drawn) [Compound 349, 3-Chloro-4,7-difluoro-benzo[b]thiophene-2-carboxylic acid[4-methoxy-4′-(2,2,2-trifluoro-acetyl)-biphenyl-3-ylmethyl]-(4-methylamino-cyclohexyl)-amide trifluoroacetate] | < 50 nM | < 50 nM | < 50 nM | – | – | – |
| CNC1CCC(N(Cc2cc(-c3cc(C)cc(C)c3)ccc2OC)C(=O)C2=C(Cl)c3c(C)ccc(F)c3C2)CC1 (stereo not drawn) [Compound 350, 3-Chloro-4,7-difluoro-benzo[b]thiophene-2-carboxylic acid[5-(2,6-dimethyl-pyridin-4-yl)-2-methoxy-benzyl]-(4-methylamino-cyclohexyl)-amide dihydrochloride] | < 50 nM | < 50 nM | 50 to 250 nM | – | – | – |
| CN[C@H]1CC[C@@H](N(Cc2cc(-c3ccnc(N(C)C)c3)ccc2OC)C(=O)c2sc3c(C)ccc(C)c3c2Cl)CC1 [Compound 358, 3-Chloro-4,7-difluoro-benzo[b]thiophene-2-carboxylic acid[5-(2-dimethylamino-pyridin-4-yl)-2-methoxy-benzyl]-(4-methylamino-cyclohexyl)-amide dihydrochloride] | < 50 nM | < 50 nM | < 50 nM | – | – | – |
| CNC1CCC(N(Cc2cc(-c3ccc(CS(C)(=O)=O)cc3)ccc2OC)C(=O)c2sc3c(F)ccc(F)c3c2Cl)CC1 (stereo not drawn) [Compound 369, 3-Chloro-4,7-difluoro-benzo[b]thiophene-2-carboxylic acid(4′-methanesulfonylmethyl-4-methoxy-biphenyl-3-ylmethyl)-(4-methylamino-cyclohexyl)-amide hydrochloride] | – | – | – | < 50 nM | < 50 nM | – |
| CNC1CCC(N(Cc2cc(-c3ccc(NS(C)(=O)=O)cc3)ccc2OC)C(=O)c2sc3c(F)ccc(F)c3c2Cl)CC1 (stereo not drawn) [Compound 370, 3-Chloro-4,7-difluoro-benzo[b]thiophene-2-carboxylic acid (4′-methanesulfonylamino-4-methoxy-biphenyl-3-ylmethyl)-(4-methylamino-cyclohexyl)-amide hydrochloride] | – | – | – | – | < 50 nM | < 50 nM |
| CNC1CCC(N(Cc2cc(-c3ccc(N(C)S(C)(=O)=O)cc3)ccc2OC)C(=O)c2sc3c(F)ccc(F)c3c2Cl)CC1 (stereo not drawn) [Compound 371, 3-Chloro-4,7-difluoro-benzo[b]thiophene-2-carboxylic acid[4′-(methanesulfonyl-methyl-amino)-4-methoxy-biphenyl-3-ylmethyl]-(4-methylamino-cyclohexyl)-amide hydrochloride] | – | – | – | < 50 nM | < 50 nM | – |

Second part, led by results:

| EC50 [1] | EC50 [2, 5] | Compound | EC50 [3] | EC50 [2, 6] | EC50 [4] | EC50 ([2]; Homo sapiens, Daoy, read-out: Human Daoy (Gli-Luc) Avg. EC50 (nM)) |
| --- | --- | --- | --- | --- | --- | --- |
| < 50 nM | < 50 nM | CNC1CCC(N(Cc2cc(-c3ccc(OC)cc3)ccc2OC)C(=O)c2sc3ccccc3c2Cl)CC1 (stereo not drawn) [Compound 305, 3-Chloro-benzo[b]thiophene-2-carboxylic acid (4,4′-dimethoxy-biphenyl-3-ylmethyl)-(4-methylamino-cyclohexyl)-amide hydrochloride] | 250 to 1000 nM | – | – | – |
| < 50 nM | < 50 nM | CCOc1ccc(-c2ccc(C(C)=O)cc2)cc1CN(C(=O)c1sc2ccccc2c1Cl)C1CCC(NC)CC1 (stereo not drawn) [Compound 311, 3-Chloro-benzo[b]thiophene-2-carboxylic acid (4′-acetyl-4-ethoxy-biphenyl-3-ylmethyl)-(4-methylamino-cyclohexyl)-amide hydrochloride] | 50 to 250 nM | – | – | – |
| 250 to 1000 nM | < 50 nM | CCOc1ccc(-c2cnc(N)nc2)cc1CN(C(=O)c1sc2ccccc2c1Cl)[C@H]1CC[C@H](NC)CC1 [Compound 325, 3-Chloro-benzo[b]thiophene-2-carboxylic acid[5-(2-amino-pyrimidin-5-yl)-2-ethoxy-benzyl]-(4-methylamino-cyclohexyl)-amide dihydrochloride] | 50 to 250 nM | – | – | – |
| < 50 nM | < 50 nM | CCOc1ccc(-c2cccc(C#N)c2)cc1CN(C(=O)c1sc2ccccc2c1Cl)C1CCC(NC)CC1 (stereo not drawn) [Compound 328, 3-Chloro-benzo[b]thiophene-2-carboxylic acid (3′-cyano-4-ethoxy-biphenyl-3-ylmethyl)-(4-methylamino-cyclohexyl)-amide hydrochloride] | 50 to 250 nM | – | – | – |
| < 50 nM | < 50 nM | CNC1CCC(N(Cc2cc(-c3cncnc3)ccc2OC)C(=O)c2sc3c(F)ccc(F)c3c2Cl)CC1 (stereo not drawn) [Compound 343 (R15), 3-Chloro-4,7-difluoro-benzo[b]thiophene-2-carboxylic acid(2-methoxy-5-pyrimidin-5-yl-benzyl)-(4-methylamino-cyclohexyl)-amide dihydrochloride] | < 50 nM | – | – | – |
| < 50 nM | < 50 nM | CNC1CCC(N(Cc2cc(-c3cnccn3)ccc2OC)C(=O)c2sc3c(F)ccc(F)c3c2Cl)CC1 (stereo not drawn) [Compound 344 (R14), 3-Chloro-4,7-difluoro-benzo[b]thiophene-2-carboxylic acid(2-methoxy-5-pyrazin-2-yl-benzyl)-(4-methylamino-cyclohexyl)-amide dihydrochloride] | < 50 nM | – | – | – |
| < 50 nM | < 50 nM | CNC1CCC(N(Cc2cc(-c3ccc(N)nc3)ccc2OC)C(=O)c2sc3c(F)ccc(F)c3c2Cl)CC1 (stereo not drawn) [Compound 352 (R18), 3-Chloro-4,7-difluoro-benzo[b]thiophene-2-carboxylic acid[5-(6-amino-pyridin-3-yl)-2-methoxy-benzyl]-(4-methylamino-cyclohexyl)-amide dihydrochloride] | < 50 nM | – | – | – |
